Data from paper PMC10058949, “Effect of N-Terminal Peptide Modifications on In Vitro and In Vivo Properties of ^177Lu-Labeled Peptide Analogs Targeting CCK2R” (Pharmaceutics, 2023).
Read-outs that look alike come from different tables or passages of the source.

Assays:
[1] = Biodistribution 4 h p.i. in A431-CCK2R/A431-mock xenografted BALB/c nude mice; format: in vivo; settings: female, BALB/c nude, mouse, iv, 20 pmol, total radioactivity, 4 h p.i., 20 pmol; for tissue uptake at 4 h: ~0.5 MBq, n=5
Protocol: (§1) Then, after 7–11 days, when visible tumor xenografts were formed, groups of 5 mice were injected intravenously via a lateral tail vein with ~0.5 MBq of radiolabeled peptide, corresponding to 20 pmol of peptide, in a total volume of ~150 µL in PBS/0.5% BSA. Using an additional mouse per group, a blocking study was performed by co-injecting a 1000-fold molar excess of the respective peptide analog (20 nmol) together with the radiolabeled peptide. For quantification, a 1:1, 1:10 and 1:50 standard was prepared using aliquots of the injection solution mixed with PBS/0.5% BSA. Mice were euthanized by cervical dislocation 4 h after injection. Subsequently, a blood sample was collected, and different tissues were dissected. All samples, as well as the rest of the body were weighed, and the activity measured in the γ-counter together with the standard. Results were expressed as percentage of injected activity per gram of tissue (%IA/g).

[2] = system: A431-CCK2R/A431-mock xenografted BALB/c nude mice; assay: as above; format: in vivo; settings: 4 h p.i., ~0.5 MBq, 20 pmol, n=5
Protocol: as §1

[3] = Octanol/PBS distribution coefficient (logD7.4); format: physicochemical; settings: octanol/PBS 1/1, pH 7.4; read-out: logD (octanol/PBS)
Protocol: (§2) The stability studies with the ^177Lu-labeled peptide analogs were carried out at a concentration of 0.5 nmol peptide/mL in fresh human serum (n = 2) for up to 24 h. A mixture of 0.05 nmol/mL of the radiolabeled peptides in PBS and octanol (1/1, v/v) was used to evaluate the octanol/PBS distribution coefficient (logD7.4; n = 8). To determine the protein binding in human serum by Sephadex G-50 size-exclusion chromatography (GE Healthcare Illustra, Little Chalfont, UK), a 25 µL serum sample was used for different time points after incubation. All steps were performed according to previously published protocols.

[4] = BALB/c mice, cited from earlier work
[5] = Protein binding in human serum by Sephadex G-50 size-exclusion chromatography; format: in vitro ADME; settings: human serum; time point not given
Protocol: as §2

[6] = Biodistribution blocking experiment with 1000-fold excess of non-radiolabeled peptide; format: in vivo, mice; settings: female, BALB/c nude, mouse, iv, total radioactivity, 4 h p.i., 1000-fold excess of non-radiolabeled peptide, n=1
Protocol: as §1

[7] = system: A431-CCK2R/A431-mock xenografted BALB/c nude mice; assay: as above; format: in vivo; settings: 4 h p.i., 1000-fold excess of non-radiolabeled peptide, n=1
Protocol: as §1

[8] = Stability of 177Lu-labeled peptides in fresh human serum; format: in vitro ADME; settings: 37 °C, 24 h incubation
Protocol: as §2

CCCC[C@@H](C(=O)N[C@@H](CC(=O)O)C(=O)N[C@@H](Cc1cccc2ccccc12)C(N)=O)N(C)C(=O)[C@H](Cc1c[nH]c2ccccc12)NC(=O)CNC(=O)[C@H](Cc1ccc(O)cc1)NC(=O)[C@H](C)NC(=O)[C@@H](CCC(=O)O)NC(=O)CN1CCN(CC(=O)O)CCN(CC(=O)O)CCN(CC(=O)O)CC1 [[^177Lu]Lu-DOTA-MGS5, metal not drawn, reference compound]
tissue uptake at 4 h ([1]; A431-CCK2R tumor xenograft, read-out: uptake in A431-CCK2R xenografts): 22.8 ± 4.67 %ID/g
tissue uptake at 4 h ([1]; A431-mock tumor xenograft, read-out: uptake in A431-mock xenografts): 0.19 ± 0.03 %ID/g
tissue uptake at 4 h ([1]; blood, read-out: uptake in blood): 0.11 ± 0.11 %ID/g
tissue uptake at 4 h ([1]; femur, read-out: uptake in femur): 0.36 ± 0.35 %ID/g
tissue uptake at 4 h ([1]; heart, read-out: uptake in heart): 0.1 ± 0.06 %ID/g
tissue uptake at 4 h ([1]; intestine, read-out: uptake in intestine): 1.02 ± 0.23 %ID/g
tissue uptake at 4 h ([1]; kidneys, read-out: uptake in kidneys): 3.45 ± 0.91 %ID/g
tissue uptake at 4 h ([1]; liver, read-out: uptake in liver): 1.02 ± 0.8 %ID/g
tissue uptake at 4 h ([1]; lung, read-out: uptake in lung): 0.17 ± 0.14 %ID/g
tissue uptake at 4 h ([1]; muscle, read-out: uptake in muscle): 0.1 ± 0.02 %ID/g
tissue uptake at 4 h ([1]; pancreas, read-out: uptake in pancreas): 1.91 ± 0.91 %ID/g
tissue uptake at 4 h ([1]; spleen, read-out: uptake in spleen): 0.27 ± 0.18 %ID/g
tissue uptake at 4 h ([1]; stomach, read-out: uptake in stomach): 6.26 ± 4.28 %ID/g
tissue to tissue ratio at 4 h ([1]; tumor / kidney, read-out: tumor-to-kidney ratio): 7
uptake in liver [2]: 1.02 ± 0.23 % IA/g
logD [3]: -2.25 ± 0.13
intact radiopeptide in blood ([4]; 10 min after intravenous injection): 86%
intact radiopeptide in blood ([4]; 30 min p.i.): 77%
intact radiopeptide in blood ([4]; 1 h after intravenous injection): 70%
fraction unbound [5]: 0.667
tissue uptake at 4 h ([6]; A431-CCK2R tumor xenograft, read-out: uptake in A431-CCK2R xenograft, blocking): 0.54 %ID/g
tissue uptake at 4 h ([6]; A431-mock tumor xenograft, read-out: uptake in A431-mock xenograft, blocking): 0.34 %ID/g
tissue uptake at 4 h ([6]; blood, read-out: uptake in blood, blocking): 0.09 %ID/g
tissue uptake at 4 h ([6]; femur, read-out: uptake in femur, blocking): 0.04 %ID/g
tissue uptake at 4 h ([6]; heart, read-out: uptake in heart, blocking): 0.08 %ID/g
tissue uptake at 4 h ([6]; lung, read-out: uptake in lung, blocking): 0.08 %ID/g
tissue uptake at 4 h ([6]; pancreas, read-out: uptake in pancreas, blocking): 0.11 %ID/g
tissue uptake at 4 h ([6]; stomach, read-out: uptake in stomach, blocking): 0.09 %ID/g
uptake in intestine, blocking [7]: 0.79 % IA/g
uptake in kidneys, blocking [7]: 2.95 % IA/g
uptake in liver, blocking [7]: 0.54 % IA/g
uptake in muscle, blocking [7]: 0.03 % IA/g
uptake in spleen, blocking [7]: 0.16 % IA/g
intact radiopeptide in human serum [8]: 96.9 ± 0.3%
